Experimental data taken from EP2433636A1, “Treatment of Malignant Diseases” (Medizinische Universität Wien, priority 2010, dated 2012).
Entries after “also recorded” stand apart in the source; their conditions may differ.

Key:
[1] = Solubility test in 20-30% DMSO in water; assay type: physicochemical; details: appropriate if 1mM of the compound is soluble in 20-30% DMSO in water; 100 mM stock in 100% DMSO
Method: Compounds in powder form were dissolved in 100% DMSO to obtain 100 mM stock solutions of each of the compounds. Solubility of the compounds was then tested by preparing solutions in 20-30% DMSO in water. […] Compounds which were non-soluble in 30% DMSO were regarded as non-soluble. NSC23766 was always used as a reference compound.

[2] = system: CRL-2505 prostate cancer cells; experiment: WST-1 cell proliferation assay; assay type: cell-based, Human; details: 72 hours of incubation with 1, 2, 5, 10 and 25 µM, compared to untreated cells
Method: Human CRL-2505 cells were seeded in 96-well plates at a density of 1x10^4 cells/well in culture medium. Cells were incubated with 1, 2, 5, 10, 25 µM compound AZA1. Cell proliferation was determined 24, 48 or 72 h after treatment using the WST-1 reagent (Roche Diagnostics, Indianapolis, IN) according to the manufacturer's protocol (Zins et al., Cancer Res. 67 (2007), 1038-1045). Each experiment was repeated three times.

Pak1 = experiment: Western blot, Pak1 total protein; assay type: cell-based, Human; details: 2 µM for 24h, compared to controls
Method: (§1) Cell lysates were prepared (Aharinejad et al., Cancer Res. 62 (2002), 5317-5324 and Cancer Res. 64 (2004), 5378-5384) and 50 µg/lane separated by 9% SDS-PAGE prior to electrophoretic transfer onto Hybond C super (Amersham Pharmacia Biotech, Buckinghamshire, UK). The blots were probed with antibodies against PAK1 and phospho-Pak1 (pS144)/Pak2 (pS141) (Cell Signaling Technology, Danvers, MA) before incubation with horseradish peroxidase-conjugated secondary antibodies (Amersham Pharmacia Biotech). Proteins were immunodetected by chemiluminescence (Supersignal-West- Femto, Pierce, Rockford, IL) and quantified by Image Quant 5.0 software (Molecular Dynamics, Sunnyvale, CA).

Rac 1, 2, 3 = Rac 1, 2, 3 activation assay (G-LISA) after EGF stimulation; assay type: cell-based, Human
Method: Prostate cancer cells were seeded in 6-well plates and starved for 20 h. Cells were incubated with Rac1 small molecule inhibitor AZA1 for 4 h and then stimulated with 50 ng/ml epidermal growth factor (EGF) (R&D systems) for 1 min 30 sec and Rac activation was then measured with the G-LISA method (Rac 1, 2, 3 activation assay, colorimetric format, Cytoskeleton) according to the manufacturer's protocol.

[3] = system: CRL-2505 prostate cancer xenograft; experiment: Survival study in prostate cancer xenograft bearing mice; assay type: in vivo, athymic nu/nu (nude) mice
Method: (§2) The experiments performed in this study were approved by the Institutional Animal Care and Use Committee at the Vienna Medical University. Pathogen-free, male, 5 week-old athymic nu/nu (nude) mice (Charles River, Sulzfeld, Germany) were weighed, coded and divided into experimental groups of (n = 10) at random. Mice were anesthetized (ketamine hydrochloride/xylazine at 55/7.5 mg/kg i.p.) and 15x10^6 CRL-2505 cells/100 µl PBS were injected s.c. into the left flank (Aharinejad et al., 2004). In a preliminary experiment mice received i.p. injections with 100 µg compound AZA1, AZA2, AZA3, or AZA4 in 100 µl 30% DMSO six days after cell injection for two weeks, control animals received 100 µl 30% DMSO/day (n = 5 for each group). In the main experiment, mice received i.p. injections with 100 µg compound AZA1 in 100 µl 30% DMSO six days after cell injection for two weeks, control animals received 100 µl 30% DMSO/day (n = 10 for each group). Tumour volumes were calculated as length x width^2/2. All animals were sacrificed on day 20.
The survival study was set for three months. Mice were treated with compound AZA1 (n = 10) or 30% DMSO (n = 10) and were euthanized when moribund.
Data were tested for normality using the Shapiro-Wilk test. Groups were compared by nonparametric analysis of variance (ANO-VA, Wilcoxon rank-sum test, Kruskal-Wallis test). All statistical tests were two-sided. The overall survival curves after treatment were analyzed by the Kaplan-Meier survival test. Statistical tests were performed with the use of SAS software (version 9.1.3) and Enterprise Guide (version 4.1, SAS Institute Inc., Cary, NC). Data are expressed as means ± SD. P values of < 0.05 were considered to indicate statistical significance.

Prostate cancer cells = experiment: In vitro migration assay (Boyden chamber); assay type: cell-based, Human; details: compared to untreated controls
Method: Prostate cancer cells (5x10^4 in 1 ml DMEM with 10% FCS) were added to the top of each Boyden migration chamber (8-µm, 12-well plate format; BD Biosciences, Palo Alto, CA). Cells were incubated with 1, 2, and 5 µM of compound AZA1. […] Cells from the upper side of the membrane were removed with cotton swabs. The membranes were excised using a scalpel, inverted and transferred to a PBS filled tissue culture well. Membranes were then fixed in methanol for 2 min at -20°C. After washing in PBS, membranes were stained with 1 µg/ml 4'-6-Diamidino-2-phenylindole (DAPI) in PBS for 10 min at RT and washed again in PBS. Membranes were then embedded in Cityfluor (Cityfluor, Leicester, UK) on glass slides under coverslips. Representative sectors of migrated prostate cancer cells were counted under a fluorescence microscope. Each experiment was performed in triplicate.

phospho-ERK = experiment: Phospho-ERK by flow cytometry; assay type: cell-based, Human; details: compared to untreated cells
Method: (§3) Tumour cells were seeded in 10 cm plates and allowed to adhere before treatment with 20 µM compound AZA1 for 4 h before trypsinization and washing with PBS.
(§4) One portion of the cells were then fixed with 70% ethanol for 1h at 4°C, washed with PBS and stained with propidium iodide (PI) puffer with 50 µg/ml DNase-free RNaseA. Cells in different cell cycle stages were determined. The rest of the cells were fixed with Cytofix fixation buffer (BD) for 30 min at 37°C, washed and then permeabilized with Perm buffer III (BD) and stained with Cyclin D1 (anti-human Cyclin D1 antibody set), phospho-Akt (anti-phospho-Akt pT308), phospho-ERK (anti-phospho-ERK1/2 pT202/pY204), phospho-JNK (anti-phospho-JNK pT183/pY185) and phospho-p38 antibodies (anti-phospho-p38 MAPK pT180/pY182) (the latter antibodies were purchased from BD Biosciences). […] were analyzed on a FACScan flow cytometer (BD Biosciences) with an argon laser tuned to 488 nm.

CRL-2505 cells [4] = experiment: Apoptosis by flow cytometry (Annexin V-FITC and PI); assay type: cell-based, Human; details: 3 h after treatment
Source text: Then the effect of Rac1 inhibition on the cell cycle regulatory protein Cyclin D1 was examined. […] Next, flow cytometry was used to assess apoptosis in response to Rac1 inhibition.

phospho-JNK = experiment: Phospho-JNK by flow cytometry; assay type: cell-based, Human; details: compared to untreated cells
Method: as §3, §4

phospho-Akt = experiment: Phospho-Akt by flow cytometry; assay type: cell-based, Human
Method: as §4

[5] = system: phospho-Pak1 (pS144)/Pak2 (pS141); experiment: Western blot, phospho-Pak1/2; assay type: cell-based, Human; details: 2 µM for 24h, compared to controls
Method: as §1

CRL-2505 cells [6] = experiment: Cell cycle distribution by flow cytometry (propidium iodide); assay type: cell-based, Human; details: 24 h; for sub G1 events (M1): untreated 1.47%
Method: as §4

Cyclin D1 = Cyclin D1 expression by flow cytometry; assay type: cell-based; details: Homo sapiens, 4 h; compared to untreated controls; read-out: Cyclin D1 fluorescence intensity, decrease
Method: as §3, §4

[7] = system: CRL-2505 prostate cancer xenograft; experiment: Human prostate cancer xenograft tumour model; assay type: in vivo, athymic nu/nu (nude) mice
Method: as §2, with “In the main experiment, mice received i.p. injections with 100 µg compound AZA1 in 100 µl 30% DMSO six days after cell injection for two weeks, control animals received 100 µl 30% DMSO/day (n = 10 for each group).” left out, “All animals were sacrificed on day 20.” left out
On day 24, tumors were isolated, weighed and the animals were sacrificed. […] Primary antibodies were detected by sequential incubation with appropriate biotinylated secondary antibodies (Vector Laboratories, Burlingame, CA) and peroxidase conjugated streptavidin (Dako), developed with 3, 3'-diaminobenzidine (Vector Laboratories), counter-stained with haemalaun, dehydrated and mounted in DPX (Merck, Darmstadt, Germany) and digitalized images were generated.

phospho-p38 = experiment: Phospho-p38 by flow cytometry; assay type: cell-based, Human; details: compared to untreated cells
Method: as §3, §4

[8] = system: chronic myelogenous leukemia (CML); details: in vitro and in vivo; cited from earlier work
PC-3 = details: Rac-hyperactive prostate cancer cells PC-3; cited from earlier work

Question: With `c1cc(NCc2ccc3[nH]ccc3c2)nc(Nc2ccc3cc[nH]c3c2)n1` [Compound 55, N*2*-(1H-Indol-6-yl)-N*4*-(1H-indol-5-ylmethyl)-pyrimidine-2,4-diamine] as the molecule, how does the solubility [1] read?
Answer: The solubility was “appropriate solubility”.

Question: Which results are given for `Cc1cc2cc(Nc3ccnc(Nc4ccc5[nH]c(C)cc5c4)n3)ccc2[nH]1` [AZA1, N*2*,N*4*-Bis-(2-methyl-1H-indol-5-yl)-pyrimidine-2,4-diamine]?
Answer: CRL-2505 cell proliferation [2]: significantly reduced; Pak1 expression (Pak1): not changed; Rac activity (Rac 1, 2, 3; CRL-2505 cells, 5, 10 and 20 µM, 4 h incubation, then 50 ng/ml EGF): reduced Rac activity significantly; Rac inhibiting activity, compared with the other screened compounds or NSC23766 (Rac 1, 2, 3; screening of the newly designed compounds, CRL-2505 cells after EGF treatment): improved Rac inhibiting activity when compared to NSC 23766; also recorded: most effective Rac inhibitor; median time to death ([3]; after tumour cell grafting, control 39 ± 15 days): 46 ± 4 days; animals still alive ([3]; day 42, when the last control animal died): 60%; survival ([3]; vs. control mice, Kaplan-Meier): significantly increased; cancer cell migration (Prostate cancer cells; 1 µM): failed to reduce cancer cell migration; cancer cell migration (Prostate cancer cells; 2 µM, 20 h): significantly reduced migration; cancer cell migration (Prostate cancer cells; 5 µM, 20 h): significantly reduced migration; activity of ERK (phospho-ERK) (phospho-ERK): not affected; apoptosis (staining with Annexin V-FITC and PI) (CRL-2505 cells [4]): no significant signs of apoptosis; solubility [1]: appropriate solubility; phosphorylation of JNK (phospho-JNK): significant decrease; pAkt at different time points (phospho-Akt; 5 min to 90 min after treatment): decreased significantly; inhibition at 20 µM (phospho-Akt; Homo sapiens, 1 h, 20 µM for 60 min (Fig. 4A), compared to untreated cells, read-out: phospho-Akt levels, reduction): 24%; Pak1/2 phosphorylation at serine 144/141 [5]: significantly reduced; sub G1 events (M1) (CRL-2505 cells [6]; 1 µM): 8.08%; sub G1 events (M1) (CRL-2505 cells [6]; 2 µM): 9.26%; G2/M (M4) phases (CRL-2505 cells [6]; 2 µM, untreated 32.25%): 28.44%; inhibition at 20 µM (Cyclin D1): 22%; ranking of AZA1 to AZA4 in the in vivo experiments (solubility, lack of toxicity, tumor-suppressive effects) ([7]; preliminary experiment, 100 µg i.p. in 30% DMSO, n = 5 per group): most potent agent; cell proliferation, staining with Ki-67 antibody ([7]; tumour tissue sections, day 24): reduced; phosphorylation of p38 (phospho-p38): significant decrease

Question: With `CCN(CC)CCCC(C)Nc1nc(C)cc(Nc2ccc3nc(C)cc(N)c3c2)n1` (stereo not shown) [NSC23766, N6-(2-((4-(diethylamino)-1-methylbutyl)amino)-6-methyl-4-pyrimidinyl)-2-methyl-4,6-quinolinediamine] as the molecule, how does the “proliferation of chronic myelogenous leukemia (CML)” value [8] read?
Answer: Its value is “inhibited proliferation”.

Question: What about the anchorage independent growth (PC-3) of the same molecule?
Answer: The anchorage independent growth was “able to inhibit”.

Question: And the invasion (PC-3)?
Answer: Its invasion is “able to inhibit”.

Question: And the proliferation (PC-3)?
Answer: The proliferation was “able to inhibit”.

Question: Which solubility [1] does the source give for `c1cc(Nc2ccc3[nH]ccc3c2)nc(Nc2ccc3[nH]ccc3c2)n1` [Compound 41, N*2*,N*4*-Bis-(1H-indol-5-yl)-pyrimidine-2,4-diamine] here?
Answer: Its solubility is “appropriate solubility”.

Question: Which solubility [1] does the source give for `CCN(CC)CCCC(C)Nc1ncc(C)c(Nc2ccc3[nH]c(C)cc3c2)n1` (stereo not shown) [Compound 10, N*2*-(4-Diethylamino-1-methyl-butyl)-5-methyl-N*4*-(2-methyl-1H-indol-5-yl)-pyrimidine-2,4-diamine] here?
Answer: Its solubility is “appropriate solubility”.
